Read-outs that look alike come from different tables or passages of the source. Each block holds one compound with its values, some of them ahead of it.
Key:
[1] = tested on: IL-1β-stimulated PGE2 synthesis, bovine chondrocyte pellets / ARC tissues; experiment: chondrocyte pellet culture model: PGE2; format: cell-based; conditions: for PGE2 synthesis: 10 ng/ml IL-1β
Source text: Calf articular cartilage was obtained from the knee joints of eight to twelve month old animals and was processed within twenty-four hours after sacrifice. After removal of muscle and ligament, the cartilage was kept moist using phosphate buffer solution (PBS) to prevent tissue dehydration, and was aseptically peeled off from subchondral bone with a scalpel, and the cartilage pieces were further minced into smaller pieces (˜0.3-0.5×˜0.2-0.5 cm cubes). […] Chondrocytes were then enzymatically isolated from the tissue by incubation for overnight at 37° C. with gentle agitation in 0.2% collagenase in Dulbecco's modified eagle media (DMEM). After removal of tissue debris by filtration through cell strainer and the residual collagenase by 3× wash in PBS, cells were finally resuspended at a density of 2.5×10^6 cells/ml in chondrocyte medium. A 1 ml aliquot of the cell suspension was dispensed into either a 15 ml Falcon centrifuge tube or a 96 deep-well plate and centrifuged at 2000×g for five minutes. The chondrocyte pellets were incubated at 37° C. in a humidified atmosphere of 5% CO2 for two to three weeks with a medium change every other day.
As an alternative to using calf articular cartilage, a commercial Alginate Recovered Chondrocytes (ARC) system was also used (Articular Engineering, LLC (Northbrook, Ill.)). Use of the commercial system cut down on labor and time in producing chondrocyte pellet. This system produced cartilaginous tissue in vitro using bovine chondrocytes. The first step consisted of culturing chondrocytes in alginate under conditions optimal for the formation of a cell-associated matrix (CM). The second step allowed these cells with their CM, after recovery, to rapidly form and become integrated into a solid mass of cartilage on a porous insert within two weeks. This tissue is rich in cells surrounded by a cell-associated matrix that is degraded rapidly when the cells are exposed to IL-1. ARC tissues in 3 mm punches at delivery were first dispensed into a 96 deep-well plate, one punch per well, for compound treatment. The subsequent procedures were the same as those used for the chondrocyte pellets.
Chondrocyte pellets were washed once with 1 ml of Chondrocyte Stimulation Medium and equilibrated in the same medium at room temperature for fifteen to thirty minutes. Compounds were dissolved in H2O, Ethanol or dimethyl sulfoxide (DMSO) (10^−2 M) according to suppliers' instructions and further diluted with Chondrocyte Stimulation Medium to the required concentrations. DMSO concentrations in the culture media should not exceed 1%; this concentration of DMSO has no effect on cartilage proteoglycan metabolism in response to cytokines.
The pellets were first treated with compounds at desired concentrations at 37° C. for one hour and then incubated for three to five days in the absence or presence of 10 ng/ml of IL-1β. At the end of the incubation, media and pellets were harvested and frozen for further analysis. Pellets were also fixed as needed in 4% (w/v) paraformaldehyde in PBS for histology analysis.
Prostaglandin E2 (PGE2) was measured with a STAT-Prostaglandin E2 EIA ELISA kit (Cayman Biochemicals). This assay is based on the competition between PGE2 from 50 μl samples and a PGE2-alkaline phosphatase conjugate for a limited amount of PGE2 monoclonal antibody in a reaction volume of 150 μl at room temperature for one hour. The antibody-PGE2 complex bound to a goat polyclonal anti-mouse IgG that had been previously attached to the well. After washing to remove any unbound reagents, para-nitrophenyl phosphate (pNPP) was added to the well. The product of this enzymatic reaction absorbs strongly at 412 nm. Because of the large range in response to IL-1β and other cytokines, PGE2 values were converted to log scale prior to doing t-tests.

[2] = format: physicochemical
Protocol: JNJ 3026582 (RWJ 67657) was gamma irradiated on dry ice at a dose of 15 kgray. Then the sterile drug was aseptically mixed with ORTHOVISC® in the concentrations of 10 μg/mL and 100 μg/mL. Drug content uniformity was confirmed by reverse phase HPLC. There was approximately 100% drug stability.
JNJ 17089540 (RWJ 669307) was gamma irradiated on dry ice at a dose of 15 kgray. The sterile drug as aseptically mixed with ORTHOVISC® in the concentrations of 1 ug/uL and 10 ug/uL. Drug content uniformity was confirmed by reverse phase HPLC. There was approximately 100% drug stability.
Suprofen was gamma irradiated on dry ice at dose of 15 kgray. The sterile drug was aseptically mixed with ORTHOVISC® in the concentration of 1.3 ug/uL. Drug content uniformity at time of preparation and stability of 4 months at 4° C. was confirmed by reverse phase HPLC that there was around 100% drug stability.

Compound: CC(=O)Oc1cccc2c1C(=O)c1c(OC(C)=O)cc(C(=O)O)cc1C2=O [Diacerein, reference compound]
PGE2 synthesis ([1]; diacerein at 5.4 μM, rhein at 0.35 μM): no effect

Compound: OCCC#Cc1nc(-c2ccc(F)cc2)c(-c2ccncc2)n1CCCc1ccccc1 [JNJ 3026582 (RWJ 67657), 4-[4-(4-fluorophenyl)-1-(3-phenylpropyl)-5-(4-pyridinyl)-1H-imidazol-2-yl]-3-butyn-1-ol]
drug stability [2]: approximately 100%

Compound: C[C@H](Nc1nccc(-c2c(-c3ccc(F)cc3)nc3nc(N)ccn23)n1)c1ccccc1 [JNJ 7583979 (RWJ 351958)]
PGE2 synthesis ([1]; ARC): significantly inhibited

Compound: CC(=O)N1CCN(c2c(-c3ccncc3)c(-c3ccc(F)cc3)c(C#N)n2C)CC1 [JNJ 17089540 (RWJ 669307)]
IC50 ([1]; Pellet Assay, read-out: PGE2 Inhibition IC50): 29.6 µM
IC50 ([1]; bovine ARC, 7.5 ng/ml IL-1β, five days, read-out: PGE2 IC50): 29.6 µM
drug stability [2]: approximately 100%

drug stability ([2]; 4 months, 1.3 ug/uL): around 100%
Compound: CC(C(=O)O)c1ccc(C(=O)c2cccs2)cc1 (stereo not shown) [Suprofen, reference compound]
